Tested on: SEC subunits AFF1, AFF4, ELL2, CCNT1 and CDK9 mRNA
Assay: RNA-seq of SEC subunit mRNA expression in HEK293T cells
Assay type: cell-based, human
Details: 20 μM, 12 hr
Description: FIG. 8, related to FIG. 1. Peptidomimetic identification of disruptors of the AFF4-CCNT1 interaction within the Super Elongation Complex. (A) Schematic of AlphaLISA assay of the AFF4-CCNT1 interaction. Anti-GST AlphaLISA acceptor beads and AlphaScreen streptavidin donor beads (Perkin Elmer) were used to detect the interaction of GST-CCNT1 (AA1-300) and biotin-AFF4 (AA32-67). (B-C) Optimization of the AlphaLISA assay with various biotin-AFF4 peptide and GST-CCNT1 concentrations. No CCNT1 (B) and mutant AFF4 (C) were used as negative controls. Data are represented as Mean+/−SD. (D) Scheme for chemical synthesis of SEC inhibitors KL-1 and KL-2. Reagents and conditions: a. LDA, THF, −78° C., 15 min., then diethyl oxalate, −78° C. to room temperature. b. […] 293T cells were treated with 20 μM of KL-1 or KL-2 for 6 hr, and the protein levels of BRD2, BRD4, Pol II (RPB1), SPT5, MED26, MYC, HSP90 (load control) and Tubulin (load control) were measured by western blotting. […] HCT-116 cells were treated with 20 μM of KL-1 or KL-2 for 6 hr, and the protein levels of AFF1, AFF4, CCNT1, CDK9 and Tubulin (load control) were determined by western blotting. […] The log2CPM (counts per million) of the SEC subunits were calculated with HTseq. […]
RNA-seq Analysis. […] Exonic reads were assigned to specific genes from Ensembl release 75 using Bioconductor package GenomicRanges countOverlaps. […]

COc1cccc(C(=O)CC(=O)C(=O)Nc2cc(Cl)ccc2C)c1 [KL-1, N-(5-chloro-2-methylphenyl)-4-oxo-4-(3-methoxyphenyl)-2-oxobutanamide]
mRNA levels of SEC components: do not result in decreased mRNA levels of SEC components

Reference: patent US11453640B2, “Small molecules for disrupting the super elongation complex and inhibiting transcription elongation for cancer therapy” (NORTHWESTERN UNIVERSITY, priority 2018, dated 2022)
